Source: patent publication US20250186463A1, “ABIRATERONE DECANOATE PRODRUGS AND USE IN THERAPY” (PROPELLA THERAPEUTICS, INC., priority 2022, published 2025)

What was measured:
[1] = tested on: serum DHEA-S, DHEA, androstenedione; experiment: Phase 1/2a study: serum DHEA-S, DHEA, androstenedione; assay type: in vivo, human
Source text: (§1) Pharmacodynamic Analysis: Determination of Prostate Specific Antigen (PSA), serum testosterone, dehydroepiandrosterone (DHEA), dehydroepiandrosterone sulfate (DHEA-S), androstenedione, dihydrotestosterone (DHT), progesterone, cortisol, adrenocorticotropic hormone (ACTH), corticosterone, 11-dexoycorticosterone (11-DOC) and 11-deoxycortisol.

lymph node lesions = experiment: Follow-up analysis and post-study PET/CT scan (Patient 1); assay type: in vivo, human; details: Patient 1, 180 mg, CSPC; enzalutamide started after study
Procedure: Patient 1. This patient is in cohort 1, which was administered 180 mg of abiraterone decanoate. This patient is […], with CSPC, with a Gleason score ≤6, who entered the study with left common iliac and femoral lymph node involvement and measurable PSA. The patient received degarelix (March thru May 2021) and leuprolide (starting June 2021). Abiraterone decanoate was injected to the patient on Jul. […] On Sep. 24, 2021, this patient started enzalutamide (Xtandi) treatment.

[2] = Phase 1/2a study: plasma pharmacokinetics; assay type: in vivo, human; details: cohort 3 (720 mg), patient 08-1301, all values
Procedure: (§2) Formulations and dosing regimen: The formulation used in the study (abiraterone decanoate for intramuscular [i.m.] injection) is a solution formulation of abiraterone decanoate at a concentration of 180 mg/mL and will be provided as a 10 mL vial containing 990 mg of abiraterone decanoate in 5.5 mL of solution. See further details of the formulations in Example 2 (for each milliliter: Abiraterone Decanoate, about 180 mg/mL; Benzyl Alcohol, about 100 mg/mL; Benzyl Benzoate, about 200 mg/mL; and Corn oil, q.s. to 1 mL). Abiraterone Decanoate will be administered as an i.m. injection every 84 days (±3 days). Dose escalation will proceed with a modified Fibonacci sequence. Based on emerging data, intermediate doses may be evaluated.
Pharmacokinetic results: the partial results from pharmacokinetic analysis for cohorts 1, 2, 3, 4, and 5 (180 mg, 360 mg, 720 mg, 1260 mg, and 1800 mg abiraterone decanoate, respectively) are shown in FIGS. 4A-4E. […] And for abiraterone decanoate, minimal increase in AbiDec for 08-1301 was observed which declined to 0 ng/ml thereafter.

[3] = Abiraterone plasma exposure in monkeys, vehicle comparison; assay type: in vivo; details: corn oil 70%, benzyl benzoate 20%, same concentration and dose
Source text: In some embodiments, the abiraterone prodrug formulation can comprise a combination of benzyl alcohol and benzyl benzoate as cosolvents. In some embodiments, the benzyl alcohol can be present in an amount of about 0-20% (e.g., 0-15% or 0-10%, such as about 10%) of the solvent, and benzyl benzoate can be present in an amount of about 0-50% (e.g., 0-35% or 0-30%, such as about 20%) of the solvent, wherein the balance of the solvent can be any one or more of the pharmaceutically acceptable oil described herein, such as corn oil, castor oil, sesame oil, peanut oil, cottonseed oil, and/or Miglyol 812, etc.

[4] = tested on: Prostate Specific Antigen (PSA); experiment: Phase 1/2a study: PSA response; assay type: in vivo, human; details: for Undetectable PSA: defined as PSA < 0.2 ng/mL
Procedure: This is a Phase 1/2a, Open-label, Multicenter Study of Intramuscular Abiraterone Decanoate Depot in Patients with Advanced Prostate Cancer.
as §2
Study Design: This is a Phase 1/2a, Open-label, Multicenter Study of Intramuscular Abiraterone Decanoate Depot in Patients with Advanced Prostate Cancer. In Phase 1, all patients will receive i.m. Abiraterone Decanoate depot in 84-day treatment cycles combined with daily oral prednisone or dexamethasone. In Phase 2a, patients will be randomized 1:1 and treated with i.m. Abiraterone Decanoate depot in 84-day treatment cycles in combination with dexamethasone (Arm A) or abiraterone acetate daily+prednisone (Arm B). In both Phases, patients will undergo scheduled periodic assessments of serum testosterone levels. Participants may continue treatment until they meet any discontinuation criteria outlined in the protocol.
as §1
Based on the available data, the recommended dose for Phase 2 is about 1260 mg abiraterone decanoate once every three months (12 weeks). All cohorts 1 and 2 in this clinical study were treated with prednisone, 5 mg orally once or twice daily; and all cohorts 3-5 were treated with dexamethasone, 0.5 mg orally once daily. The results shown herein for these cohorts should be understood accordingly.
PSA Levels: the median baseline PSA level was 3.01 ng/mL. […] The table below further summarizes the reduction of PSA observed without elevated progesterone level.

Structure (SMILES): CCCCCCCCCC(=O)O[C@H]1CC[C@@]2(C)C(=CC[C@@H]3[C@@H]2CC[C@]2(C)C(c4cccnc4)=CC[C@@H]32)C1 [abiraterone decanoate]
- serum DHEA-S level vs baseline ([1]; cohorts 1-5, FIG. 3B): significantly reduced
- serum DHEA level vs baseline ([1]; cohorts 1-5, FIG. 3C): significantly reduced
- serum androstenedione level vs baseline ([1]; cohorts 1-5, FIG. 3D): significantly reduced
- lymph node lesions on post-study PET/CT scan (lymph node lesions): complete resolution of prior lymph node lesions
- plasma abiraterone values [2]: below the LLOQ
- abiraterone plasma exposure versus corn oil 90% / benzyl alcohol 10% formulation [3]: much higher abiraterone plasma exposure
- percentages of patients achieving PSA50 and 90 versus those reported for abiraterone acetate (AA) and enzalutamide (Enza) ([4]; Chemo-naïve CRPC, FIGS. 9A and 9B): much higher
- PSA at follow-up ([4]; Patient 1, 180 mg, CSPC, enzalutamide started after study): below LLOQ
- patients with PSA50 ([4]; cohorts 3, 4, and 5): 15 out of 16
- patients with PSA90 ([4]; cohorts 3, 4, and 5): 8 out of 16
- Best PSA Response ([4]; patient 02-1403, Cohort 4, 1260 mg, mCRPC, Visit C4D28): −98%
- Undetectable PSA ([4]; patient 02-1403, Cohort 4, 1260 mg, mCRPC): No
- Best PSA Response ([4]; patient 02-1405, Cohort 4, 1260 mg, mCRPC, Visit C1D56): −94%
- Undetectable PSA ([4]; patient 02-1405, Cohort 4, 1260 mg, mCRPC): No
- Best PSA Response ([4]; patient 02-1504, Cohort 5, 1800 mg, mCRPC, Visit C1D28): −92.4
- Undetectable PSA ([4]; patient 02-1504, Cohort 5, 1800 mg, mCRPC): No
- Best PSA Response ([4]; patient 02-1505, Cohort 5, 1800 mg, mCSPC, Visit C1D84): −98%
- Undetectable PSA ([4]; patient 02-1505, Cohort 5, 1800 mg, mCSPC): No
- Best PSA Response ([4]; patient 04-1406, Cohort 4, 1260 mg, mCSPC, Visit C1D56): −82%
- Undetectable PSA ([4]; patient 04-1406, Cohort 4, 1260 mg, mCSPC): No
- Best PSA Response ([4]; patient 04-1503, Cohort 5, 1800 mg, mCSPC, Visit C1D84): −67%
- Undetectable PSA ([4]; patient 04-1503, Cohort 5, 1800 mg, mCSPC): Yes
- Best PSA Response ([4]; patient 04-1506, Cohort 5, 1800 mg, mCRPC, Visit C1D28): −54%
- Undetectable PSA ([4]; patient 04-1506, Cohort 5, 1800 mg, mCRPC): No
- Best PSA Response ([4]; patient 06-1401, Cohort 4, 1260 mg, mCRPC, Visit C3D84): −99.97%
- Undetectable PSA ([4]; patient 06-1401, Cohort 4, 1260 mg, mCRPC): Yes
- Best PSA Response ([4]; patient 06-1402, Cohort 4, 1260 mg, mCRPC, Visit C4D28): −93%
- Undetectable PSA ([4]; patient 06-1402, Cohort 4, 1260 mg, mCRPC): No
- Best PSA Response ([4]; patient 06-1404, Cohort 4, 1260 mg, mCSPC, Visit C2D84): −67%
- Undetectable PSA ([4]; patient 06-1404, Cohort 4, 1260 mg, mCSPC): Yes
- Best PSA Response ([4]; patient 06-1501, Cohort 5, 1800 mg, mCRPC, Visit C1D84): 48%
- Undetectable PSA ([4]; patient 06-1501, Cohort 5, 1800 mg, mCRPC): No
- Best PSA Response ([4]; patient 06-1502, Cohort 5, 1800 mg, mCSPC, Visit C2D84): −99.6%^
- Undetectable PSA ([4]; patient 06-1502, Cohort 5, 1800 mg, mCSPC): Yes
